Entries after “also recorded” stand apart in the source; their conditions may differ.
What was measured:
[1] = Stability in human blood serum, Method B
[2] = Chemical hydrolysis under gastric juice-like conditions; assay type: physicochemical
[3] = pKa and degree of ionization of phosphate/phosphonate; assay type: physicochemical; details: physiological conditions, pH 7.4
human NTPDase3 = molecular target: T1, human NTPDase3 (Homo sapiens, UniProt O75355); experiment: Hydrolysis by NTPDase3; assay type: biochemical
T1 sequence (O75355 1-529): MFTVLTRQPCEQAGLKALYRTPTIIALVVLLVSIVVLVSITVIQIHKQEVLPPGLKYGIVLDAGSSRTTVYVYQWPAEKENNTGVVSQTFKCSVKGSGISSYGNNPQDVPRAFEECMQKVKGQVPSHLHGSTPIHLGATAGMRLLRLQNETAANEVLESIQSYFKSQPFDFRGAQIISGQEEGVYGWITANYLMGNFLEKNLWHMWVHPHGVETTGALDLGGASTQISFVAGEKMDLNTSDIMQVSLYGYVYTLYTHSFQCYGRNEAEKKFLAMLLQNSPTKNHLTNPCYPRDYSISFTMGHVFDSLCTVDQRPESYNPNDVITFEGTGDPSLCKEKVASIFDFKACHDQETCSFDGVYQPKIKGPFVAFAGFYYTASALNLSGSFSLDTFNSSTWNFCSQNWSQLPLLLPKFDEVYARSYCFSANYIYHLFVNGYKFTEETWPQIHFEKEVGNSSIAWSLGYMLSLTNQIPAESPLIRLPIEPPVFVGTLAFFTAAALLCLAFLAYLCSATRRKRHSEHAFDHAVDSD

human NTPDase1 = molecular target: T2, human NTPDase1 (Homo sapiens, UniProt P49961); experiment: Hydrolysis by NTPDase1; assay type: biochemical
T2 sequence (P49961 1-510): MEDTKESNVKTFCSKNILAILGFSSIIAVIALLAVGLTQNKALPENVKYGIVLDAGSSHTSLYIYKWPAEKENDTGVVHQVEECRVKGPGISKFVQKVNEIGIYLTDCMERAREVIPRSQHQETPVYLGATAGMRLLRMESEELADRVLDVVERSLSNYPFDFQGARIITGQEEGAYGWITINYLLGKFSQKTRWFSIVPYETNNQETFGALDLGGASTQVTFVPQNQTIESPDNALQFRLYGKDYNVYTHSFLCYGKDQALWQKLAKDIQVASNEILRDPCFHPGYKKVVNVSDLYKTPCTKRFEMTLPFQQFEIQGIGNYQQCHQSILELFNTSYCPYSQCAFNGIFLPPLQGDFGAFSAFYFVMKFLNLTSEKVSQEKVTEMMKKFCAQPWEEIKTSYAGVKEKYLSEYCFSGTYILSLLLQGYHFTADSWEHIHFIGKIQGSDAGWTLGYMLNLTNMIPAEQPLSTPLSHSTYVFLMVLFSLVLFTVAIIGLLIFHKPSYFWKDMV

human NTPDase8 = molecular target: T3, human NTPDase8 (Homo sapiens, UniProt Q5MY95); experiment: Hydrolysis by NTPDase8; assay type: biochemical
T3 sequence (Q5MY95 1-495): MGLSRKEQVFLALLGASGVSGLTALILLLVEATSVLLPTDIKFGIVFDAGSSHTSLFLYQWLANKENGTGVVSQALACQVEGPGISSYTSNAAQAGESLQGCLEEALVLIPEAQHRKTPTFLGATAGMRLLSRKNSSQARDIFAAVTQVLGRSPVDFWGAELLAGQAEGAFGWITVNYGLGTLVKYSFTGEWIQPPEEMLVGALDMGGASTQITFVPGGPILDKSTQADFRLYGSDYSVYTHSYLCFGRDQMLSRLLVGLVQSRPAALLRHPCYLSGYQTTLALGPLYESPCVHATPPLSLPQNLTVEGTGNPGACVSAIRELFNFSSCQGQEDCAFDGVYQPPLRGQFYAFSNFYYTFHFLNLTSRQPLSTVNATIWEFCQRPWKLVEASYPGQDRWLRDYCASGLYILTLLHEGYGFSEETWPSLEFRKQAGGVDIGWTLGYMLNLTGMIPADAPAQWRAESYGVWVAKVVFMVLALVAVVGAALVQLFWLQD

P2Y1R = details: cited from earlier work
human NPP1 = molecular target: T4, human NPP1 (Homo sapiens, UniProt P22413); experiment: Hydrolysis by NPP1; assay type: biochemical
T4 sequence (P22413 1-925): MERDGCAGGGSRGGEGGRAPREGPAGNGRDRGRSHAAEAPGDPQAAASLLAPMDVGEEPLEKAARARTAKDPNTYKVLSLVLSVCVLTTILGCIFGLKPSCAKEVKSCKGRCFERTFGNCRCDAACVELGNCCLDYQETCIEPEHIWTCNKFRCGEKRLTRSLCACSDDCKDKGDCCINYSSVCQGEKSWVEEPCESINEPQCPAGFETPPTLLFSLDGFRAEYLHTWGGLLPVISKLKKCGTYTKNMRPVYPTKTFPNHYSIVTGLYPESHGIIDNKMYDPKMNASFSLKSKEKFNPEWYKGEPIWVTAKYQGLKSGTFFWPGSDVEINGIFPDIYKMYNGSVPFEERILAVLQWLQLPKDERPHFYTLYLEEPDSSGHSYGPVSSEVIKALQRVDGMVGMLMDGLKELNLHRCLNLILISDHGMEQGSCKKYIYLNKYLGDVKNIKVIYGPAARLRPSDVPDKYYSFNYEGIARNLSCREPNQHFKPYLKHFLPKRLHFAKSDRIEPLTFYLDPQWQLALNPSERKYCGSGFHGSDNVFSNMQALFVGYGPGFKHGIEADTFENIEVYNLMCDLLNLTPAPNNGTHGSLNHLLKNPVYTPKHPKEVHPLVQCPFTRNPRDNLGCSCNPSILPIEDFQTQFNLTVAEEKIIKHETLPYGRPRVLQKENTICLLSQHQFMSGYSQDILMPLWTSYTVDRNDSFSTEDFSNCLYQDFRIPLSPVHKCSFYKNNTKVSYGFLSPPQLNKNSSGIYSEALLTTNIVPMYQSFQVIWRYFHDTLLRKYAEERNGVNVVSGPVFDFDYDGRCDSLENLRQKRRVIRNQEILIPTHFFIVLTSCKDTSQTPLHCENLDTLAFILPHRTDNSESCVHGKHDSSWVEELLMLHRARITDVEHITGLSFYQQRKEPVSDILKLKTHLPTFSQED

human NPP3 = molecular target: T5, human NPP3 (Homo sapiens, UniProt O14638); experiment: Hydrolysis by NPP3; assay type: biochemical
T5 sequence (O14638 1-875): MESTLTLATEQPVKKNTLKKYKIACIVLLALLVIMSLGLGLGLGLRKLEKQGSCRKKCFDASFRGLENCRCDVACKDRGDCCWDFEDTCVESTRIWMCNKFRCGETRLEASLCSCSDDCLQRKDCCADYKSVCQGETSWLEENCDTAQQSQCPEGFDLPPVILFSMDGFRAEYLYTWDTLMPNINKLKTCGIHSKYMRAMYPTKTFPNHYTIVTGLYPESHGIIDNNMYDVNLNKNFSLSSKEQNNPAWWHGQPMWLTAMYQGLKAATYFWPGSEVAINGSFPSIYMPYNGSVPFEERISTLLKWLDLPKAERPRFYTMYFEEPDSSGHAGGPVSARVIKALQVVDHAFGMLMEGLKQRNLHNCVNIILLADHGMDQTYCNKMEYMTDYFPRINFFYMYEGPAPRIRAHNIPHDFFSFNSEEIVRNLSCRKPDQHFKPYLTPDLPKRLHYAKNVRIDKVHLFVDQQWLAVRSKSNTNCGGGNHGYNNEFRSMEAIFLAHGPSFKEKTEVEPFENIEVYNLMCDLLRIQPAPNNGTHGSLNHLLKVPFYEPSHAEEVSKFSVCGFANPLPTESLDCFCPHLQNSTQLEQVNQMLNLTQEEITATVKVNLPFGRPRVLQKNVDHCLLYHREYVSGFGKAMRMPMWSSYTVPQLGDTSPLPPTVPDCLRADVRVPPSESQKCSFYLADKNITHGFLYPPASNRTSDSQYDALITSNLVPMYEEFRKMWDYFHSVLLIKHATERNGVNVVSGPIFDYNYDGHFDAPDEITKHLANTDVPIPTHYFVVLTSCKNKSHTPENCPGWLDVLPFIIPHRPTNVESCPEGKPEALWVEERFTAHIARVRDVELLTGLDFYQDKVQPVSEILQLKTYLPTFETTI

human NTPDase2 = molecular target: T6, human NTPDase2 (Homo sapiens, UniProt Q9Y5L3); experiment: Hydrolysis by NTPDase2; assay type: biochemical; details: 100 μM substrate; relative to ATP hydrolysis (100%)
T6 sequence (Q9Y5L3 1-495): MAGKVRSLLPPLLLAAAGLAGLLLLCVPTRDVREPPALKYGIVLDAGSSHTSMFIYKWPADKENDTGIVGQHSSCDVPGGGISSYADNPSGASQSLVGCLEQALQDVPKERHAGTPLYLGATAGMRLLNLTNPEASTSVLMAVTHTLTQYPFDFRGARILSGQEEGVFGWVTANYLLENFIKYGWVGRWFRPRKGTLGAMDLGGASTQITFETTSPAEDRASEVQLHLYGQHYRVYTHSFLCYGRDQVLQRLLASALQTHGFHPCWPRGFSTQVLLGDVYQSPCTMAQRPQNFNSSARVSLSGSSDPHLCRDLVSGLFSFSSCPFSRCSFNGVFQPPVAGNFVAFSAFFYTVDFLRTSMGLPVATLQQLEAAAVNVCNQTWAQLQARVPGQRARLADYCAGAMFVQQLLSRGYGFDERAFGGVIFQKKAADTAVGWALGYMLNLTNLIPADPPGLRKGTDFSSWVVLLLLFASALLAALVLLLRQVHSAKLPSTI

human P2Y4 receptor = human P2Y4 receptor (Homo sapiens, UniProt P51582); experiment: Increase in [Ca2+]i in 1321N1 astrocytoma cells expressing P2Y4 receptor; assay type: cell-based; details: read-out: EC50 of analogue-induced increase in [Ca2+]i, P2Y4; 1321N1 cell transfectants
human P2Y2 receptor = human P2Y2 receptor (Homo sapiens, UniProt P41231); experiment: Increase in [Ca2+]i in 1321N1 astrocytoma cells expressing P2Y2 receptor; assay type: cell-based; details: read-out: EC50 of analogue-induced increase in [Ca2+]i, P2Y2; 1321N1 cell transfectants
rat P2Y6 receptor = rat P2Y6 receptor (Rattus norvegicus, UniProt Q63371); experiment: Increase in [Ca2+]i in 1321N1 astrocytoma cells expressing P2Y6 receptor; assay type: cell-based; details: read-out: EC50 of analogue-induced increase in [Ca2+]i, P2Y6; 1321N1 cell transfectants
turkey P2Y1 receptor = turkey P2Y1 receptor (Meleagris gallopavo, UniProt P49652); assay type: cell-based; details: 1321N1 cell transfectants
[4] = 100 μM substrate, relative to pnp-TMP hydrolysis (100%)
[5] = 100 μM substrate, relative to ATP hydrolysis (100%)

Chain of turkey P2Y1 receptor (P49652 whole entry): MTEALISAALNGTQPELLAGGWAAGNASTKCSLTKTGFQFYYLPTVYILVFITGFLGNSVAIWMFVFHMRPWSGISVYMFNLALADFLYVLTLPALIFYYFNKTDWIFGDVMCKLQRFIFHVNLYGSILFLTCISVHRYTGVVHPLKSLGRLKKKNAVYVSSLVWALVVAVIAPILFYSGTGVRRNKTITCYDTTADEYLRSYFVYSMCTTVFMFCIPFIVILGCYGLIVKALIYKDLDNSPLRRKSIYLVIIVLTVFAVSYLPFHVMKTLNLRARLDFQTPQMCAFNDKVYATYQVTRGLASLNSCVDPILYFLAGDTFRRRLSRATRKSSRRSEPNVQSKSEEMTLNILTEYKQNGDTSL
Chain of rat P2Y6 receptor (Q63371 whole entry): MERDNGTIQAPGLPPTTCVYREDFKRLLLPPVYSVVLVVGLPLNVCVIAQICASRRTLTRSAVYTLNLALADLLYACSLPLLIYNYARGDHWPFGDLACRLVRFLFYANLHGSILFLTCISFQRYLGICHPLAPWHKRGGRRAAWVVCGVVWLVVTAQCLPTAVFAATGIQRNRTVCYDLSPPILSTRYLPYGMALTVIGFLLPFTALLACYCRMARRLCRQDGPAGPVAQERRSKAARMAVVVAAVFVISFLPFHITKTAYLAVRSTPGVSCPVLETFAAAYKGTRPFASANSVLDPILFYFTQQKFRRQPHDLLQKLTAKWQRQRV
Chain of human P2Y2 receptor (P41231 whole entry): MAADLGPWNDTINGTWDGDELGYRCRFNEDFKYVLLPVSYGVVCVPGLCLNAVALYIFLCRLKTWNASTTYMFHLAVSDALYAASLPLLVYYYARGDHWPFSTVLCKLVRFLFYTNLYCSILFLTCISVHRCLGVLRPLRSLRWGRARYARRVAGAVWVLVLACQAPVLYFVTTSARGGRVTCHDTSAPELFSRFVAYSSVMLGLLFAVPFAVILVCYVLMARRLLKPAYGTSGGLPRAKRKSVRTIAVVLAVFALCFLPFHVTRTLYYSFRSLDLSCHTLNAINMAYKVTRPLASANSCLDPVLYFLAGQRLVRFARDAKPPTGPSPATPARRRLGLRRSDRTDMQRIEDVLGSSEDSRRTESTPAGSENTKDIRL
Chain of human P2Y4 receptor (P51582 whole entry): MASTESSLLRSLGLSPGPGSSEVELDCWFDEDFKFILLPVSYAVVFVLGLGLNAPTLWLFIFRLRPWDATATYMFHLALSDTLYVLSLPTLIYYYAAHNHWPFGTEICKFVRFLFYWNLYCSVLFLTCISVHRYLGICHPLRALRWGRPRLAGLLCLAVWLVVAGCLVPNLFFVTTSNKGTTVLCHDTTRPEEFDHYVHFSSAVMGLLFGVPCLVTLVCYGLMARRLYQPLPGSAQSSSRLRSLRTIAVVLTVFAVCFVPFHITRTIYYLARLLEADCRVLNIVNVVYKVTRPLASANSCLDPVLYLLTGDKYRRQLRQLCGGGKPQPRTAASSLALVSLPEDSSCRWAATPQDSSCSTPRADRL

BP(=O)(OC[C@H]1O[C@@H](n2cnc3c(N)nc(SC)nc32)[C@H](O)[C@@H]1O)OP(=O)(O)CP(=O)(O)O (stereo partly drawn) [compound 4, 2-MeS–adenosine-5′-O-(α-boranotriphosphate)-β,γ-CH2]
enhancement of the metabolic stability of ATP ([1]; human blood serum, half-life vs ATP): ≥ 20 fold

BP(=O)(OC[C@H]1O[C@@H](n2cnc3c(N)ncnc32)[C@H](O)[C@@H]1O)OP(=O)(O)CP(=O)(O)O (stereo partly drawn) [compound 3, Adenosine-5′-O-(α-boranotriphosphate)-β,γ-CH2]
improvement of chemical stability as compared to 1 ([2]; pH 1.4, 37 °C): ca. 3 fold

CSc1nc(N)c2ncn([C@@H]3O[C@H](COP(=O)(O)OP(=O)(O)OP(=O)(O)O)[C@@H](O)[C@H]3O)c2n1 [2-MeS–ATP]
fraction ionized [3]: 91%

CSc1nc(N)c2ncn([C@@H]3O[C@H](COP(=O)(O)OP(=O)(O)O)[C@@H](O)[C@H]3O)c2n1 [2-MeS-ADP]
fraction ionized [3]: 91%

Nc1ncnc2c1ncn2[C@@H]1O[C@H](COP(=O)(O)OP(=O)(O)OP(=O)(O)O)[C@@H](O)[C@H]1O [ATP, reference compound]
ATPase activity (100%) of NTPDase3 (human NTPDase3; 100 μM ATP): 493 ± 21 nmol Pi/min·mg protein | ATPase activity (100%) of NTPDase1 (human NTPDase1; 100 μM ATP): 497 ± 38 nmol Pi/min·mg protein | ATPase activity (100%) of NTPDase8 (human NTPDase8; 100 μM ATP): 173 ± 18 nmol Pi/min·mg protein

Nc1ncnc2c1ncn2[C@@H]1O[C@H](COP(=O)(O)OP(=O)(O)O)[C@@H](O)[C@H]1O [ADP]
EC50 (P2Y1R; read-out: EC50 at P2Y1R, endogenous agonist ref 1): ~0.1 µM

Cc1cn([C@H]2C[C@H](O)[C@@H](COP(=O)(O)Oc3ccc([N+](=O)[O-])cc3)O2)c(=O)[nH]c1=O [pnp-TMP, p-nitrophenylthymidine-5′-monophosphate, reference compound]
100% activity of NPP1 with pnp-TMP as substrate (human NPP1; 100 μM pnp-TMP): 24 ± 2 nmol p-nitrophenol/min·mg protein | Relative activity of NPP1 (human NPP1; [4]): 100% | 100% activity of NPP3 with pnp-TMP as substrate (human NPP3; 100 μM pnp-TMP): 53 ± 4 nmol p-nitrophenol/min·mg protein | Relative activity of NPP3 (human NPP3; [4]): 100%

2-MeS–ATP-α-B [1A]
potency of 1A isomer relative to 1B isomer at P2Y1R (P2Y1R): 20 fold

[BH3-][P+](O)(OC[C@H]1O[C@@H](n2cnc3c(N)nc(SC)nc32)[C@H](O)[C@@H]1O)OP(=O)(O)CP(=O)(O)O (single isomer, unassigned) [4B, 2-MeS–adenosine-5′-O-(α-boranotriphosphate)-β,γ-CH2]
Relative activity of NTPDase3 (human NTPDase3; [5]): 2.0 ± 1.0% | t1/2 of acidic hydrolysis ([2]; KCl/HCl buffer pH 1.4, 37 °C, 31P NMR (2) or HPLC-MS (3B, 4B)): 14.5 h | t1/2 in human blood serum ([1]; Method B, human blood serum and RPMI-1640, 37 °C): 71.9 h | Relative activity of NTPDase2 (human NTPDase2): 1.0 ± 0.3% | EC50 (human P2Y4 receptor): > 100 µM | Relative activity of NTPDase1 (human NTPDase1; [5]): <1% | Relative activity of NTPDase8 (human NTPDase8; [5]): 3.0 ± 07% | EC50 (human P2Y2 receptor): > 100 µM | EC50 (rat P2Y6 receptor): > 100 µM | agonist activity at P2Y1R (turkey P2Y1 receptor): potent P2Y1R agonists; also recorded: active isomer | EC50 (turkey P2Y1 receptor; read-out: EC50 of analogue-induced increase in [Ca2+]i, P2Y1): 17.2 ± 5.3 µM
